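Values below derive from 48-hour exposures of cells grown in 96-well plates, with endpoints linearly interpolated between the two concentrations bracketing the appropriate inhibition level. At the GI50, growth is halved. TGI marks complete inhibition of growth.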
Experiments:
Assay in all cases: growth of human tumour cells (NCI), 48 h
SK-MEL-5 melanoma = tested on: SK-MEL-5 melanoma
HCT-116 colon = tested on: HCT-116 colon
U251 CNS = tested on: U251 CNS
UO-31 renal = tested on: UO-31 renal
HOP-62 NSCLC = tested on: HOP-62 NSCLC
SF-539 CNS = tested on: SF-539 CNS
NCI-H23 lung = tested on: NCI-H23 lung
HL-60(TB) leukemia = tested on: HL-60(TB) leukemia
SN12C renal = tested on: SN12C renal
MDA-MB-435 = tested on: MDA-MB-435

SMILES | TGI (SK-MEL-5 melanoma) | TGI (HCT-116 colon) | TGI (U251 CNS) | TGI (UO-31 renal) | TGI (HOP-62 NSCLC) | TGI (SF-539 CNS) | TGI (NCI-H23 lung) | TGI (HL-60(TB) leukemia) | TGI (SN12C renal) | GI50 (SK-MEL-5 melanoma) | GI50 (HCT-116 colon) | GI50 (MDA-MB-435) | TGI (MDA-MB-435) | GI50 (U251 CNS) | GI50 (UO-31 renal) | GI50 (HOP-62 NSCLC) | GI50 (SF-539 CNS) | GI50 (NCI-H23 lung) | GI50 (HL-60(TB) leukemia) | GI50 (SN12C renal)
O=C(c1ccccc1)c1c(CC(O)c2ccccc2)n(C(=O)c2ccccc2)c2ccccc12 (stereo unspecified) | > 100 µM | > 100 µM | > 100 µM | 60.6 µM | > 100 µM | > 100 µM | 69.5 µM | > 100 µM |  |  |  |  |  |  |  |  |  |  |  | 
NNC(=O)N/N=C1\C(=O)N(c2nccs2)C(=O)C(=O)C1c1nc2ccccc2s1 (stereo unspecified) |  | > 100 µM | > 100 µM | > 100 µM | > 100 µM | > 100 µM | > 100 µM |  | > 100 µM |  |  |  |  |  |  |  |  |  |  | 
CCCCCCCCCOC(=S)NCCCCC | 40.7 µM | 44.8 µM | 48.6 µM | 51.1 µM | 80.9 µM | 41.3 µM | 68.3 µM | 39.5 µM | 74 µM |  |  |  |  |  |  |  |  |  |  | 
CCc1nc2cc(/C=C/C(=O)NO)ccc2c(=O)n1CCc1ccc(F)cc1 | 2.21 µM | 2.93 µM | 2.91 µM | 3.11 µM | 4.44 µM | 5.53 µM | 3.7 µM | > 100 µM |  | 0.903 µM | 0.49 µM | 1.7 µM | 4.38 µM | 1.31 µM | 1.41 µM | 1.5 µM | 1.73 µM | 1.62 µM | 4.59 µM | 
COC(=O)C(C(=O)C(=O)Nc1ccc(OC)cc1[N+](=O)[O-])c1nc2cc(C)c(C)cc2[nH]c1=O (stereo unspecified) | > 100 µM | > 100 µM | > 100 µM | > 100 µM | > 100 µM | > 100 µM | > 100 µM | > 100 µM | > 100 µM |  |  |  |  |  |  |  |  |  |  | 
CN(C)CCNC(=O)c1cccc2ncc(-c3ccccc3)nc12 | 24.1 µM | 22 µM | 41.7 µM | > 67.8 µM | 34.7 µM | 16.8 µM | 32.2 µM | 42.4 µM | 42.2 µM |  |  |  |  |  |  |  |  |  |  | 
Cc1c(C2Cc3ccccc3N2)c2ccccc2n1C (stereo unspecified) | > 100 µM | > 100 µM | > 100 µM | > 100 µM | > 100 µM | > 100 µM | > 100 µM | > 100 µM | > 100 µM |  |  |  |  |  |  |  |  |  |  | 
CCOC(=O)c1c2cccccc2n2c(=O)cc(C)nc12 |  |  | > 100 µM | > 100 µM | > 100 µM | > 100 µM | > 100 µM | > 100 µM | > 100 µM |  |  |  |  |  |  |  |  |  |  | 
Nc1nc(N)c(N=Nc2ccc(C(=O)O)c(O)c2)c(N)n1 | > 100 µM | > 100 µM | > 100 µM | > 100 µM | > 100 µM | > 100 µM | > 100 µM |  | > 100 µM |  |  |  | > 100 µM |  |  |  |  |  |  | 
CCCCCCCCCCCCCC(=O)OCC1OC(n2cc(F)c(=O)[nH]c2=O)C(N)C(OC(=O)CCCCCCCCCCCCC)C1O (stereo unspecified) | > 100 µM | > 100 µM | > 100 µM | > 100 µM | > 100 µM | > 100 µM | > 100 µM | > 100 µM | > 100 µM |  |  |  |  |  |  |  |  |  |  | 
COc1cc(CC(C(=O)O)C(=O)O)c(OC)cc1CC(C(=O)O)C(=O)O | > 100 µM | > 100 µM | > 100 µM | > 100 µM | > 100 µM | > 100 µM | > 100 µM | > 100 µM | > 100 µM |  |  |  |  |  |  |  |  |  |  | 
CCOC(=O)C1SC(=Nc2ccc(Cl)cc2C)N=C1C (stereo unspecified) | 29.9 µM | 28.4 µM | 31.6 µM | 39.9 µM | 43.2 µM | 34.5 µM | 34.8 µM | 27.1 µM | 41.4 µM |  |  |  |  |  |  |  |  |  |  | 
O=C(O)CC1CC=C[C@H]2c3cc4c(cc3C(=O)NC12)OCO4 (stereo partly specified) |  | > 75 µM | > 75 µM | > 75 µM | > 75 µM | > 75 µM | > 75 µM | > 75 µM | > 75 µM |  |  |  |  |  |  |  |  |  |  | 
CC(=O)C1CCC2C3CC=C4CC(SC(=N)N)CCC4(C)C3CCC12C (stereo unspecified) | 3.01 µM |  |  | 7.54 µM | 3.6 µM | 3.96 µM | 5.34 µM | 4.19 µM |  | 1.65 µM |  |  |  |  | 2.36 µM | 1.93 µM | 1.87 µM | 2.02 µM | 1.88 µM | 
COCOCC[C@@H]1CC=CC(NC(=O)OCc2ccccc2)C1/C=C/C(=O)CCC1OCCO1 (stereo partly specified) | > 100 µM | 33.1 µM | 70.6 µM | > 100 µM | > 100 µM | > 63 µM | 97.8 µM | 51 µM | > 68.5 µM |  |  |  |  |  |  |  |  |  |  | 
C=C1C(=O)OC2C1C(OC(=O)/C(C)=C\C)CC1(CO1)C1C(O)C=C(C)C21O (stereo unspecified) | 17.7 µM | 3.29 µM | 24.5 µM | 22.2 µM | 41.1 µM | 8.06 µM | 27.2 µM | > 100 µM | 14.5 µM |  |  |  |  |  |  |  |  |  |  | 
OC1CCC[C@@H]1Sc1ccccc1 (stereo partly specified) | > 100 µM | > 100 µM | > 100 µM | > 100 µM | > 100 µM | > 100 µM | > 100 µM | > 100 µM | > 100 µM |  |  |  |  |  |  |  |  |  |  | 
Cn1nc(-c2ccccc2)c(C(=O)/C=C/c2ccc(F)cc2)c(N2CCOCC2)c1=O | 29.3 µM | 14.3 µM | 31.4 µM | 25.6 µM |  | 36.3 µM |  | 40.5 µM | > 100 µM |  |  |  |  |  |  |  |  |  |  | 
Cc1nc(Nc2ccccc2)sc1C(=O)CC(=O)C(=O)NC12CC3CC(CC(C3)C1)C2 | > 100 µM | > 100 µM | > 100 µM | > 100 µM | > 100 µM | > 100 µM | > 100 µM | > 100 µM | > 100 µM |  |  |  |  |  |  |  |  |  |  | 
CC(=O)ON(C(C)=O)C1C(COC(c2ccccc2)(c2ccccc2)c2ccccc2)OC2OC3(CCCC3)OC21 (stereo unspecified) | > 100 µM | > 100 µM | > 100 µM | > 100 µM | > 100 µM | > 100 µM | > 100 µM | > 100 µM | > 100 µM |  |  |  |  |  |  |  |  |  |  | 
C#CCN(N=O)C(=O)NCCCC(NC(C)=O)C(=O)NCc1ccccc1 (stereo unspecified) | > 100 µM | > 100 µM | > 100 µM | > 100 µM | > 100 µM | > 100 µM | > 100 µM |  | > 100 µM |  |  |  |  |  |  |  |  |  |  | 
COC(=O)C1=C(O)[C@H](C(=O)OC)[C@]2(O)[C@@H](C(=O)OC)[C@H]1C[C@@H](c1ccc(OC(=O)/C=C/c3ccco3)cc1)[C@@H]2C(=O)OC | 94.4 µM | 17.6 µM | 23.8 µM |  | 30.5 µM |  |  | 75.1 µM | 52.3 µM | 27.1 µM | 4.9 µM | 21.7 µM | 66.8 µM | 10.3 µM |  | 15.7 µM |  |  | 13.9 µM | 22.4 µM
